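Tested at 5 concentrations; 48 h exposure; 96-well plates; endpoints linearly interpolated, else capped at highest concentration. At the TGI there is no net growth.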
Columns and labels:
Assay in all cases: NCI-60 cell line screen, 48 h
BT-549 breast = system: BT-549 breast
OVCAR-4 ovarian = system: OVCAR-4 ovarian
CAKI-1 renal = system: CAKI-1 renal
UACC-257 melanoma = system: UACC-257 melanoma
MCF7 breast = system: MCF7 breast
T-47D breast = system: T-47D breast
MALME-3M melanoma = system: MALME-3M melanoma
M14 melanoma = system: M14 melanoma
HOP-92 NSCLC = system: HOP-92 NSCLC
MDA-MB-435 = system: MDA-MB-435
OVCAR-5 ovarian = system: OVCAR-5 ovarian
HT29 colon = system: HT29 colon
SNB-19 CNS = system: SNB-19 CNS
SF-268 CNS = system: SF-268 CNS
KM12 colon = system: KM12 colon
PC-3 prostate = system: PC-3 prostate
IGROV1 ovarian = system: IGROV1 ovarian
SN12C renal = system: SN12C renal
RPMI-8226 leukemia = system: RPMI-8226 leukemia
NCI-H226 lung = system: NCI-H226 lung
TK-10 renal = system: TK-10 renal
MOLT-4 leukemia = system: MOLT-4 leukemia
SK-MEL-28 melanoma = system: SK-MEL-28 melanoma
A549 NSCLC = system: A549 NSCLC
CCRF-CEM leukemia = system: CCRF-CEM leukemia
NCI-H460 lung = system: NCI-H460 lung
UO-31 renal = system: UO-31 renal
DU-145 prostate = system: DU-145 prostate
LOX IMVI melanoma = system: LOX IMVI melanoma
HOP-62 NSCLC = system: HOP-62 NSCLC
SK-MEL-2 melanoma = system: SK-MEL-2 melanoma
RXF 393 renal = system: RXF 393 renal
SK-MEL-5 melanoma = system: SK-MEL-5 melanoma
K-562 leukemia = system: K-562 leukemia
HL-60(TB) leukemia = system: HL-60(TB) leukemia
A498 renal = system: A498 renal
NCI/ADR-RES ovarian = system: NCI/ADR-RES ovarian
NCI-H522 lung = system: NCI-H522 lung
UACC-62 melanoma = system: UACC-62 melanoma
U251 CNS = system: U251 CNS
OVCAR-8 ovarian = system: OVCAR-8 ovarian
786-0 renal = system: 786-0 renal
EKVX NSCLC = system: EKVX NSCLC
OVCAR-3 ovarian = system: OVCAR-3 ovarian
SF-295 CNS = system: SF-295 CNS
HCT-15 colon = system: HCT-15 colon
NCI-H23 lung = system: NCI-H23 lung
MDA-N = system: MDA-N
COLO 205 colon = system: COLO 205 colon
HCT-116 colon = system: HCT-116 colon
MDA-MB-231 breast = system: MDA-MB-231 breast
ACHN renal = system: ACHN renal
SW-620 colon = system: SW-620 colon
HS 578T breast = system: HS 578T breast
SNB-75 CNS = system: SNB-75 CNS
SK-OV-3 ovarian = system: SK-OV-3 ovarian
HCC-2998 colon = system: HCC-2998 colon

## O=c1[nH]nc(Cc2ccc(Cl)cc2)n1/N=C\c1ccc(/C=N/n2c(Cc3ccc(Cl)cc3)n[nH]c2=O)cc1
BT-549 breast
  TGI: > 100 µM
OVCAR-4 ovarian
  TGI: > 100 µM
CAKI-1 renal
  TGI: > 100 µM
UACC-257 melanoma
  TGI: > 100 µM
MCF7 breast
  TGI: > 100 µM
T-47D breast
  TGI: > 100 µM
MALME-3M melanoma
  TGI: > 100 µM
M14 melanoma
  TGI: > 100 µM
HOP-92 NSCLC
  TGI: > 100 µM
MDA-MB-435
  TGI: > 100 µM
OVCAR-5 ovarian
  TGI: > 100 µM
HT29 colon
  TGI: > 100 µM
SNB-19 CNS
  TGI: > 100 µM
SF-268 CNS
  TGI: > 100 µM
KM12 colon
  TGI: > 100 µM
PC-3 prostate
  TGI: > 100 µM
IGROV1 ovarian
  TGI: > 100 µM
SN12C renal
  TGI: > 100 µM
RPMI-8226 leukemia
  TGI: > 100 µM
NCI-H226 lung
  TGI: > 100 µM
TK-10 renal
  TGI: > 100 µM
MOLT-4 leukemia
  TGI: > 100 µM
SK-MEL-28 melanoma
  TGI: > 100 µM
A549 NSCLC
  TGI: > 100 µM
CCRF-CEM leukemia
  TGI: > 100 µM
NCI-H460 lung
  TGI: > 100 µM
UO-31 renal
  TGI: > 100 µM
DU-145 prostate
  TGI: > 100 µM
LOX IMVI melanoma
  TGI: > 100 µM
HOP-62 NSCLC
  TGI: 57.5 µM
SK-MEL-2 melanoma
  TGI: > 100 µM
RXF 393 renal
  TGI: > 100 µM
SK-MEL-5 melanoma
  TGI: > 100 µM
K-562 leukemia
  TGI: > 100 µM
HL-60(TB) leukemia
  TGI: > 100 µM
A498 renal
  TGI: > 100 µM
NCI/ADR-RES ovarian
  TGI: > 100 µM
NCI-H522 lung
  TGI: > 100 µM
UACC-62 melanoma
  TGI: > 100 µM
U251 CNS
  TGI: 97.9 µM
OVCAR-8 ovarian
  TGI: > 100 µM
786-0 renal
  TGI: 53.1 µM
EKVX NSCLC
  TGI: > 100 µM
OVCAR-3 ovarian
  TGI: > 100 µM
SF-295 CNS
  TGI: > 100 µM
HCT-15 colon
  TGI: > 100 µM
NCI-H23 lung
  TGI: > 100 µM
MDA-N
  TGI: > 100 µM
COLO 205 colon
  TGI: > 100 µM
HCT-116 colon
  TGI: > 100 µM
MDA-MB-231 breast
  TGI: 70.5 µM
ACHN renal
  TGI: > 100 µM
SW-620 colon
  TGI: > 100 µM
HS 578T breast
  TGI: > 100 µM

## CN(CCCCN(C)CCc1ccc(Cl)c(Cl)c1)CCCCN1CCCC1
BT-549 breast
  TGI: 4.6 µM
OVCAR-4 ovarian
  TGI: 3.66 µM
SNB-75 CNS
  TGI: 3.72 µM
CAKI-1 renal
  TGI: 3.13 µM
UACC-257 melanoma
  TGI: 3.06 µM
MCF7 breast
  TGI: 2.84 µM
T-47D breast
  TGI: 3.94 µM
MALME-3M melanoma
  TGI: 3.46 µM
M14 melanoma
  TGI: 2.16 µM
SK-OV-3 ovarian
  TGI: 6.05 µM
HOP-92 NSCLC
  TGI: 2.95 µM
MDA-MB-435
  TGI: 0.904 µM
OVCAR-5 ovarian
  TGI: 5.54 µM
HT29 colon
  TGI: 1.88 µM
SNB-19 CNS
  TGI: 5.23 µM
SF-268 CNS
  TGI: 3.12 µM
KM12 colon
  TGI: 1.92 µM
PC-3 prostate
  TGI: 4.52 µM
IGROV1 ovarian
  TGI: 5.57 µM
SN12C renal
  TGI: 4.01 µM
NCI-H226 lung
  TGI: 4.01 µM
TK-10 renal
  TGI: 2.99 µM
SK-MEL-28 melanoma
  TGI: 1.06 µM
A549 NSCLC
  TGI: 3.35 µM
CCRF-CEM leukemia
  TGI: 0.39 µM
NCI-H460 lung
  TGI: 2.98 µM
UO-31 renal
  TGI: 0.96 µM
DU-145 prostate
  TGI: 8.92 µM
LOX IMVI melanoma
  TGI: 1.66 µM
HOP-62 NSCLC
  TGI: 3.74 µM
SK-MEL-2 melanoma
  TGI: 3.12 µM
RXF 393 renal
  TGI: 3.03 µM
SK-MEL-5 melanoma
  TGI: 3.19 µM
HL-60(TB) leukemia
  TGI: 3.97 µM
A498 renal
  TGI: 3.14 µM
NCI/ADR-RES ovarian
  TGI: 13.4 µM
NCI-H522 lung
  TGI: 2.32 µM
UACC-62 melanoma
  TGI: 3.42 µM
U251 CNS
  TGI: 1.97 µM
OVCAR-8 ovarian
  TGI: 6.25 µM
786-0 renal
  TGI: 2.55 µM
EKVX NSCLC
  TGI: 3.54 µM
OVCAR-3 ovarian
  TGI: 4.34 µM
SF-295 CNS
  TGI: 3.54 µM
HCT-15 colon
  TGI: 3.73 µM
NCI-H23 lung
  TGI: 3.41 µM
MDA-N
  TGI: 2.64 µM
COLO 205 colon
  TGI: 3.8 µM
HCT-116 colon
  TGI: 2.93 µM
HCC-2998 colon
  TGI: 0.384 µM
MDA-MB-231 breast
  TGI: 2.25 µM
ACHN renal
  TGI: 3.64 µM
SW-620 colon
  TGI: 3.02 µM
HS 578T breast
  TGI: 3.23 µM

Source: PubChem BioAssay (NCI)
